Reference: patent publication US20250353891A1 (MEDIMMUNE LIMITED, priority 2022, published 2025)
pEC50: −log10 of the molar value. Starred links: 1 amine or outer side, 2 acyl side, 3 side chain; linkers in the order of their positions; H or OH if unused. Non-standard residues stand in square brackets, D forms with d. Residues, ends and D or L forms follow the SMILES beside them. Groups on a side chain read outwards from the residue. *: point of attachment. C20 diacid = O=C(O)CCCCCCCCCCCCCCCCCCC(=O)*; C18 diacid = O=C(O)CCCCCCCCCCCCCCCCC(=O)*; γGlu = O=C(O)[C@H](CCC(=O)[*:2])N[*:1]; αMeF = C[C@](N)(Cc1ccccc1)C(=O)O; NMeQ = CN[C@@H](CCC(N)=O)C(=O)O; αMeQ = C[C@](N)(CCC(N)=O)C(=O)O; AEEA = NCCOCCOCC(=O)O; Aib = CC(C)(N)C(=O)O

How the values were obtained:
[1] = target: human glucagon receptor (hGCGR) (Homo sapiens, UniProt P47871); test: cAMP production (HTRF) in CHO cells expressing hGCGR; format: cell-based; parameters: expressed in transfected cells; settings: Table 7, peptides modified at position 20; cAMP in CHO hGCGR cells; geometric mean; read-out: hGluc-R EC50
Chain of human glucagon receptor (hGCGR) (P47871 26-477): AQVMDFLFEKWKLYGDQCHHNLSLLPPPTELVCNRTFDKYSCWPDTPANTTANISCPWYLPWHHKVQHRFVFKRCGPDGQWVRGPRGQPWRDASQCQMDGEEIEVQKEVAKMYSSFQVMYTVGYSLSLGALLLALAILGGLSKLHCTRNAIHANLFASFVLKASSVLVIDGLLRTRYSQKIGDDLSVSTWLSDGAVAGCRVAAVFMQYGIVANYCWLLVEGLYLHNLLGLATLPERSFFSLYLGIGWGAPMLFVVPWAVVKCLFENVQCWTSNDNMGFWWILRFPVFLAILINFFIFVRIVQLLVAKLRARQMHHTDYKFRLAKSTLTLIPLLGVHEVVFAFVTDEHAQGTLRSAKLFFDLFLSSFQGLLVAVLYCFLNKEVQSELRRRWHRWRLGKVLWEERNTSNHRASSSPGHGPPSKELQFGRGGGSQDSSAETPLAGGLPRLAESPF
Procedure, shortened: (§1)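 Potency values represent EC50 from 4-parameter logistic curves of HTRF % Delta F signal. Receptor-expressing CHO cells (hGCGR 2×10^5 cells/mL, hGLP-1R 1×10^5 cells/mL) were exposed for 30 min at room temperature before two-step cAMP detection.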

[2] = target: human GLP-1 receptor (hGLP-1R) (Homo sapiens, UniProt P43220); test: cAMP production (HTRF) in CHO cells expressing hGLP-1R; format: cell-based; parameters: expressed in transfected cells; settings: for pEC50: Table 7, peptides modified at position 20, cAMP in CHO hGLP-1R cells, geometric mean, read-out: hGLP-1R EC50; for % Relative Potency Ratio: Table 7, % GLP-1R activity relative to GLP-1 / % GlucR activity relative to glucagon
Chain of human GLP-1 receptor (hGLP-1R) (P43220 24-463): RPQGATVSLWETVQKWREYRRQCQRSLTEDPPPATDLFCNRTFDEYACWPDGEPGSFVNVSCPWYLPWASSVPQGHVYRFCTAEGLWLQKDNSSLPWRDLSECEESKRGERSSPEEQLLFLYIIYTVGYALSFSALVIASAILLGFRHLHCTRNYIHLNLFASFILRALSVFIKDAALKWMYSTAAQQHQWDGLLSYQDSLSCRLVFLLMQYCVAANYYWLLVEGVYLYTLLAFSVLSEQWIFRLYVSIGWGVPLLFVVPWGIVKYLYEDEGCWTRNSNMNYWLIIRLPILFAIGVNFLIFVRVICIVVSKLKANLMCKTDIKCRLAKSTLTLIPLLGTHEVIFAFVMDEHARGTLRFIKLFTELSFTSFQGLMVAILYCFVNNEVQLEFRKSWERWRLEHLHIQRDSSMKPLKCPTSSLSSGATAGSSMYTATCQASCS
Procedure, shortened: as §1

pEC50 [1]	pEC50 [2]	% Relative Potency Ratio [2]	SMILES
7.92	10.26	429.7	CC[C@H](C)[C@H](NC(=O)[C@H](Cc1c[nH]c2ccccc12)NC(=O)[C@H](CCC(N)=O)NC(=O)[C@@H](NC(=O)[C@H](Cc1ccccc1)NC(=O)[C@H](CC(=O)O)NC(=O)[C@H](CCCCNC(=O)COCCOCCNC(=O)COCCOCCNC(=O)CC[C@H](NC(=O)CCCCCCCCCCCCCCCCC(=O)O)C(=O)O)NC(=O)[C@H](C)NC(=O)[C@H](C)NC(=O)[C@H](CCCNC(=N)N)NC(=O)[C@H](CO)NC(=O)[C@H](CC(=O)O)NC(=O)[C@H](CC(C)C)NC(=O)[C@](C)(Cc1ccccc1)NC(=O)[C@H](CCCCN)NC(=O)[C@H](CO)NC(=O)[C@@H](NC(=O)[C@H](CC(=O)O)NC(=O)[C@H](CO)NC(=O)[C@@H](NC(=O)[C@H](Cc1ccccc1)NC(=O)[C@@H](NC(=O)CNC(=O)[C@H](CCC(N)=O)NC(=O)[C@](C)(CO)NC(=O)[C@@H](N)Cc1c[nH]cn1)[C@@H](C)O)[C@@H](C)O)C(C)C)C(C)C)C(=O)N[C@@H](C)C(=O)N[C@@H](CC(N)=O)C(=O)N[C@H](C(N)=O)[C@@H](C)O [Peptide 318]
8.36	10.65	384.7	CC[C@H](C)[C@H](NC(=O)C(C)(C)NC(=O)[C@H](CCC(N)=O)NC(=O)[C@@H](NC(=O)[C@](C)(Cc1ccccc1)NC(=O)[C@H](CC(=O)O)NC(=O)[C@H](CCCCNC(=O)COCCOCCNC(=O)COCCOCCNC(=O)CC[C@H](NC(=O)CCCCCCCCCCCCCCCCC(=O)O)C(=O)O)NC(=O)[C@H](C)NC(=O)[C@H](C)NC(=O)[C@H](CCCNC(=N)N)NC(=O)[C@H](CO)NC(=O)[C@H](CC(=O)O)NC(=O)[C@H](CC(C)C)NC(=O)[C@](C)(Cc1ccccc1)NC(=O)[C@H](CCCCN)NC(=O)[C@H](CO)NC(=O)[C@@H](NC(=O)[C@H](CC(=O)O)NC(=O)[C@H](CO)NC(=O)[C@@H](NC(=O)[C@](C)(Cc1ccccc1)NC(=O)[C@H](CO)NC(=O)CNC(=O)[C@H](CCC(N)=O)NC(=O)C(C)(C)NC(=O)[C@@H](N)Cc1c[nH]cn1)[C@@H](C)O)C(C)C)C(C)C)C(=O)N[C@@H](C)C(=O)N[C@@H](CC(N)=O)C(=O)N[C@H](C(N)=O)[C@@H](C)O [Peptide 321] (H-H[Aib]QGS[αMeF]TSDVSK[αMeF]LDSRAAK([AEEA-AEEA-γGlu-C18 diacid])D[αMeF]VQ[Aib]IANT-NH2)
< 7.61	10.17	–	CC[C@H](C)[C@H](NC(=O)C(C)(C)NC(=O)[C@H](CCC(N)=O)NC(=O)[C@@H](NC(=O)[C@](C)(Cc1ccccc1)NC(=O)[C@H](CC(=O)O)NC(=O)[C@H](CCCCNC(=O)COCCOCCNC(=O)COCCOCCNC(=O)CC[C@H](NC(=O)CC[C@H](NC(=O)CCCCCCCCCCCCCCCCCCC(=O)O)C(=O)O)C(=O)O)NC(=O)[C@H](C)NC(=O)[C@H](C)NC(=O)[C@H](CCCNC(=N)N)NC(=O)[C@H](CO)NC(=O)[C@H](CC(=O)O)NC(=O)[C@H](CC(C)C)NC(=O)[C@](C)(Cc1ccccc1)NC(=O)[C@H](CCCCN)NC(=O)[C@H](CO)NC(=O)[C@@H](NC(=O)[C@H](CC(=O)O)NC(=O)[C@H](CO)NC(=O)[C@@H](NC(=O)[C@](C)(Cc1ccccc1)NC(=O)[C@H](CO)NC(=O)CNC(=O)[C@H](CCC(N)=O)NC(=O)C(C)(C)NC(=O)[C@@H](N)Cc1c[nH]cn1)[C@@H](C)O)C(C)C)C(C)C)C(=O)N[C@@H](C)C(=O)N[C@@H](CC(N)=O)C(=O)N[C@H](C(N)=O)[C@@H](C)O [Peptide 322] (H-H[Aib]QGS[αMeF]TSDVSK[αMeF]LDSRAAK([AEEA-AEEA-γGlu-γGlu-C20 diacid])D[αMeF]VQ[Aib]IANT-NH2)
< 7.59	7.94	–	CC[C@H](C)[C@H](NC(=O)C(C)(C)NC(=O)[C@H](CCC(N)=O)NC(=O)[C@@H](NC(=O)[C@](C)(Cc1ccccc1)NC(=O)[C@H](CC(=O)O)NC(=O)[C@H](CCCCNC(=O)COCCOCCNC(=O)COCCOCCNC(=O)CC[C@H](NC(=O)CCCCCCCCCCCCCCCCC(=O)O)C(=O)O)NC(=O)[C@H](C)NC(=O)[C@H](C)NC(=O)[C@H](CCCNC(=N)N)NC(=O)[C@H](CO)NC(=O)[C@H](CC(=O)O)NC(=O)[C@H](CC(C)C)NC(=O)[C@](C)(Cc1ccccc1)NC(=O)[C@H](CCCCN)NC(=O)[C@H](CO)NC(=O)[C@@H](NC(=O)[C@H](CC(=O)O)NC(=O)[C@H](CO)NC(=O)[C@@H](NC(=O)[C@](C)(Cc1ccccc1)NC(=O)[C@H](CO)NC(=O)CNC(=O)[C@](C)(CCC(N)=O)NC(=O)[C@H](CO)NC(=O)[C@@H](N)Cc1c[nH]cn1)[C@@H](C)O)C(C)C)C(C)C)C(=O)N[C@@H](C)C(=O)N[C@@H](CC(N)=O)C(=O)N[C@H](C(N)=O)[C@@H](C)O [Peptide 323] (H-HS[αMeQ]GS[αMeF]TSDVSK[αMeF]LDSRAAK([AEEA-AEEA-γGlu-C18 diacid])D[αMeF]VQ[Aib]IANT-NH2)
< 7.59	9.03	–	CC[C@H](C)[C@H](NC(=O)C(C)(C)NC(=O)[C@H](CCC(N)=O)NC(=O)[C@@H](NC(=O)[C@](C)(Cc1ccccc1)NC(=O)[C@H](CC(=O)O)NC(=O)[C@H](CCCCNC(=O)COCCOCCNC(=O)COCCOCCNC(=O)CC[C@H](NC(=O)CCCCCCCCCCCCCCCCC(=O)O)C(=O)O)NC(=O)[C@H](C)NC(=O)[C@H](C)NC(=O)[C@H](CCCNC(=N)N)NC(=O)[C@H](CO)NC(=O)[C@H](CC(=O)O)NC(=O)[C@H](CC(C)C)NC(=O)[C@](C)(Cc1ccccc1)NC(=O)[C@H](CCCCN)NC(=O)[C@H](CO)NC(=O)[C@@H](NC(=O)[C@H](CC(=O)O)NC(=O)[C@H](CO)NC(=O)[C@@H](NC(=O)[C@](C)(Cc1ccccc1)NC(=O)[C@H](CO)NC(=O)CNC(=O)[C@H](CCC(N)=O)N(C)C(=O)[C@H](CO)NC(=O)[C@@H](N)Cc1c[nH]cn1)[C@@H](C)O)C(C)C)C(C)C)C(=O)N[C@@H](C)C(=O)N[C@@H](CC(N)=O)C(=O)N[C@H](C(N)=O)[C@@H](C)O [Peptide 325] (H-HS[NMeQ]GS[αMeF]TSDVSK[αMeF]LDSRAAK([AEEA-AEEA-γGlu-C18 diacid])D[αMeF]VQ[Aib]IANT-NH2)
< 7.59	8.17	–	CC[C@H](C)[C@H](NC(=O)C(C)(C)NC(=O)[C@H](CCC(N)=O)NC(=O)[C@@H](NC(=O)[C@](C)(Cc1ccccc1)NC(=O)[C@H](CC(=O)O)NC(=O)[C@H](CCCCNC(=O)COCCOCCNC(=O)COCCOCCNC(=O)CC[C@H](NC(=O)CCCCCCCCCCCCCCCCC(=O)O)C(=O)O)NC(=O)[C@H](C)NC(=O)[C@H](C)NC(=O)[C@H](CCCNC(=N)N)NC(=O)[C@H](CO)NC(=O)[C@H](CC(=O)O)NC(=O)[C@H](CC(C)C)NC(=O)[C@](C)(Cc1ccccc1)NC(=O)[C@H](CCCCN)NC(=O)[C@H](CO)NC(=O)[C@@H](NC(=O)[C@H](CC(=O)O)NC(=O)[C@H](CO)NC(=O)[C@@H](NC(=O)[C@](C)(Cc1ccccc1)NC(=O)[C@H](CO)NC(=O)CNC(=O)[C@@H](CCC(N)=O)NC(=O)[C@H](CO)NC(=O)[C@@H](N)Cc1c[nH]cn1)[C@@H](C)O)C(C)C)C(C)C)C(=O)N[C@@H](C)C(=O)N[C@@H](CC(N)=O)C(=O)N[C@H](C(N)=O)[C@@H](C)O [Peptide 326] (H-HS[dQ]GS[αMeF]TSDVSK[αMeF]LDSRAAK([AEEA-AEEA-γGlu-C18 diacid])D[αMeF]VQ[Aib]IANT-NH2)
